This is an account of results in paper PMC12880750, “Mechanistic insights and in vivo HIV suppression by the BRD4-targeting small molecule ZL0580” (PLOS Pathogens, 2026).

As a reminder, the AUC(0-t) is exposure summed from dosing to a finite time, without extrapolation to infinity. Lower therefore signals less exposure. What is called Cmax is the peak of the concentration-time curve. As usually defined, the MRT inf is the average time that molecules of a dose stay in the body. What is called clearance is the rate of elimination divided by the concentration. The low end stands for a low capacity for elimination, the high end for a high capacity for elimination. The half-life is the time in which the quantity being followed falls by half. Read a high half-life as slow decline.

Data set [1] is described as follows: In vivo pharmacokinetics in ICR mice. As to conditions: mouse, plasma. Set-up: species or system male ICR mice. How it is done: Animal experiments assessing PK and in vivo toxicity profile of ZL0580 was performed by the contracting research organization (CRO) Sundia. The studies were performed according to the NIH Guide for Care and Use of Experimental Animals. The PK studies of ZL0580 was performed using male ICR mice (18–22 g). The mice were randomly divided into two groups (n = 3). The mice of the group 1 were intravenously administrated with ZL0580 [10 mg/kg, in 10% DMSO + 10% Solutol HS 15 + 80% HP-β-CD (20%, w/v)] and the mice of the group 2 were orally administrated with ZL0580 [20 mg/kg, in 10% DMSO + 90% HP-β-CD (20%, w/v)]. Blood samples of group 1 and group 2 mice were collected at the indicated time points post treatment and put into heparinized centrifugation tubes, which were centrifuged under the condition of 6800 rpm and 4 °C for 6 min. The supernatant was collected and stored at -20 °C for further LC-MS analysis. Before the plasma concentrations (AUC) were determined, standard curves were generated with various concentrations of ZL0580 and the internal standard (IS). All PK parameters were calculated with WinNonlin 6.4 software.

For the next data set, the target named is T1, BRD4 BD2 WT (Homo sapiens, UniProt O60885).
T1 construct: Constructs used for mutagenesis, including wild-type BD1 (BD1 WT), BD1 with an E151A mutation (BD1 E151A), and wild-type BD2 (BD2 WT); GST (cleaved yes); made in house
The experiment in a line: Thermal shift assay (TSA/DSF), BD2 WT. The data set is classed as binding. As to conditions: eight increasing concentrations. How it is done: The melting temperatures shifts (ΔTm) were measured and the ΔTm curves as a function of compound-to-protein ratios were generated (Fig 2B–2C). […] As an additional control, the Tm of WT BD1 and E151A mutant in the absence of compound was also measured by TSA.
Plasmid construction and subsequent protein expression and purification of BRD4 proteins were performed using OverExpress C43(DE3) bacterial competent cells (Lucigen) as described in our previous studies. In brief, 12 L of bacterial cultures grown to OD600 between 0.6-0.8 were induced at 37°C for 4 h by 1 mM isopropyl […] (IPTG). Bacterial sonication supernatant in the lysis buffer (500 mM NaCl, 20 mM Tris-HCl pH 7.9 at 4°C, 20% glycerol, 1 mM EDTA, 0.2 mM DTT, and protease inhibitors) was incubated with glutathione (GSH) agarose beads (GOLDBIO, G-250–100) overnight with rotation at 4°C. The protein-bound GSH beads were washed three times with the lysis buffer and digested with human rhinovirus 3C protease (HRV-P3C; Thermal Fisher 88946) at 4°C for 4 h, according to the manufacture’s procedure, to remove GST tag from BD1/2 proteins. Untagged BRD4-BD1 and -BD2 were separated from HRV-P3C via passing through a HiTrap Q HP anion exchange chromatography column (GE Healthcare, GE17-1154-01) and eluted by a salt gradient from 100 mM to 1 M NaCl. […]

Molecules are shown by their SMILES. Where two headings read alike, the source gives them in different places.

On to `O=C(Nc1ccc(C(F)(F)F)cc1)Nc1ccc(S(=O)(=O)N2CCC[C@H]2C(=O)Nc2ccccc2)cc1` [ZL0580], for which the AUC(0-t) in data set [1] (male, IV, 10 mg/kg, ICR mice) stood at 14400 ± 3470 ng·h/mL. Also, the AUC(0-inf) in data set [1] (male, IV, 10 mg/kg, ICR mice, read-out: AUC0-∞) came out at 14400 ± 3470 ng·h/mL. In data set [1] (IV (10 mg/kg), male ICR mice), this molecule showed a Cmax of 19300 ± 2790 ng/mL, an MRT inf of 0.73 ± 0.12 h, a clearance of 12 mL/min/kg and a half-life of 0.91 ± 0.06 h. For the same molecule, the Vd in data set [1] (IV (10 mg/kg), male ICR mice, read-out: Vz) amounted to 0.95 ± 0.28 L/kg. In addition, in data set [1] (PO (20 mg/kg), male ICR mice), the AUC(0-t) amounted to 5590 ± 1880 ng·h/mL, the Cmax amounted to 1470 ± 186 ng/mL, the MRT inf is 3.18 ± 1.39 h and the half-life is 2.54 ± 2.24 h. In addition, in data set [1] (PO (20 mg/kg), male ICR mice, read-out: AUC0-inf), the AUC(0-inf) came to 5800 ± 2120 ng·h/mL. For the same molecule, the “Effect on stability of WT BD2 (TSA)” value on BRD4 BD2 WT was “sparing BD2”.
